Experimental data taken from patent US6426343B1, “Preparation and use of a specific GABA-Aα5 receptor ligand for treatment of Alzheimer's disease” (Merck Sharp & Dohme Ltd., priority 1995, dated 2002).

Assays:
[1] = system: non-α5 subtype containing GABA-A receptors; experiment: In vivo [3H]Ro 15-1788 binding after pellet implantation; parameters: species or system rat; details: SC pellet
[2] = Blood levels after subcutaneous pellet implantation; details: 1.5 mg in hydroxy propylmethylcellulose pellet, rats
α6β3γ2 = target: T1, α6β3γ2 (Homo sapiens, UniProt P18507+Q16445); experiment: Radioligand binding, membranes of stably transfected cells
T1 construct: expressed in transfected cells
T1 sequence (Q16445 20-453): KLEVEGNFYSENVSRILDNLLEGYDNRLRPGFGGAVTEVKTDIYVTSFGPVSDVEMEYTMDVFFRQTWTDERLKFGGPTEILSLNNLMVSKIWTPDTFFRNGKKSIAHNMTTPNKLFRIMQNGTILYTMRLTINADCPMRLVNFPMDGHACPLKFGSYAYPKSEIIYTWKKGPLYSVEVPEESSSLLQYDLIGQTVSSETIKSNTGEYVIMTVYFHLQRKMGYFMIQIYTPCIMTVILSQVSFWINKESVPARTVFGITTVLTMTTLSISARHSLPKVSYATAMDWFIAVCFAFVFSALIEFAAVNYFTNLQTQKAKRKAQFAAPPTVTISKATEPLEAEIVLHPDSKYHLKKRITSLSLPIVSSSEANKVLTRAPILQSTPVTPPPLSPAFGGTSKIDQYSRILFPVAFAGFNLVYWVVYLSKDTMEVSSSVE
T1 sequence (P28472 26-473 partner): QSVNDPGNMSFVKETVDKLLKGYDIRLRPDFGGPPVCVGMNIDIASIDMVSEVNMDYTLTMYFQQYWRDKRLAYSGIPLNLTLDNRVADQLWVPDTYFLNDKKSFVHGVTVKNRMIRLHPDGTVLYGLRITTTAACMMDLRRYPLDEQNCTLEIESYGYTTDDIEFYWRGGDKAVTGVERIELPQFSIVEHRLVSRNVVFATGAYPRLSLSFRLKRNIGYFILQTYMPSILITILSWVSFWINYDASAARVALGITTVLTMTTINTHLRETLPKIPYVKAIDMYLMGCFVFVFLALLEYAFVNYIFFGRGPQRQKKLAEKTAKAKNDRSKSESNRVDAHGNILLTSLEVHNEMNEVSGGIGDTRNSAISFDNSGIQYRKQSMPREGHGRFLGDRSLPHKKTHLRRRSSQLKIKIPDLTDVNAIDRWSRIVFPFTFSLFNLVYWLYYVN
T1 sequence (P18507 40-467 isoform P18507-1 limits assumed): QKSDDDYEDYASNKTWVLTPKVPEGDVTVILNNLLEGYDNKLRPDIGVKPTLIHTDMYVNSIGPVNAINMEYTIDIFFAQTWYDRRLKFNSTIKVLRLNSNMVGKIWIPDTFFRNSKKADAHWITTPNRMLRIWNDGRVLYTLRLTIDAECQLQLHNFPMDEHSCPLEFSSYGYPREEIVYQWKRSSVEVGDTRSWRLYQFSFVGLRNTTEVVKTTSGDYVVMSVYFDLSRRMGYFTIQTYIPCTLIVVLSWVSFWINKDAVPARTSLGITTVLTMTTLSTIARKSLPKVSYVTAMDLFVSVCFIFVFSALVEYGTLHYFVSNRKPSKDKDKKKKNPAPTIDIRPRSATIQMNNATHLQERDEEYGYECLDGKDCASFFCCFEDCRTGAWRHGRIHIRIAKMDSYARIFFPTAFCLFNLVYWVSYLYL

Spinal cord (α2/3) = experiment: In vivo [3H]Ro 15-1788 binding, spinal cord; details: for percentage inhibition of in vivo [3H]Ro 15-1788 binding, spinal cord: 30 min, mean±SEM, relative to vehicle
Procedure: (§1) The in vivo binding of [^3H]Ro 15-1788 to mouse brain was performed essentially as described by Goeders and Kuhar (1985). Male Swiss-Webster mice received a 0.9% NaCl solution containing 50 mCi/kg of [^3H]Ro 15-1788 (0.05 ml/10 g of body weight) via the tail vein. […] Each mouse brain was then rapidly removed, homogenised in 5.0 ml of 50 mM Tris HCl, 5.0 mM EDTA, pH 7.4 at 4° C. using an ultra-turrax homogeniser for 10 s at setting 5. In a separate series of experiments different brain regions, selected for their preferential expression of particular GABA subtypes were also examined. Binding of [^3H]Ro 15-1788 to cerebellum is almost exclusively α1-like (Quirk et al, 1994), whereas binding to spinal cord is indicative of binding to receptors containing α2 or α3-subtypes, α1, α4 and α5 are rare or absent in this region (Wisden et al, 1992). Brains were rapidly dissected into forebrain and cerebellum and the spinal cord was also removed. Each forebrain was homogenised in 4.0 ml of buffer (approximately 14 ml/g wet weight of tissue), each cerebellum was homogenised in 1.0 ml of buffer (approximately 14 ml/g wet weight of tissue) and each spinal cord in 1.0 ml of buffer (approximately […] wet weight of tissue). Volumes ([…]) of homogenate were filtered rapidly through GF/B filters, washed with 2×5.0 ml volumes of ice-cold buffer and the residual radioactivity was counted by liquid scintillation spectroscopy.
(§2) Mice were injected intraperitoneally with FG 8094, 10 mg/kg or 1 mg/kg, 30 minutes prior to sacrifice and [^3H]Ro 15-1788 (0.1 mCi/g). Brain regions were dissected, homogenised and filtered as described in methods.

[3] = system: benzodiazepine binding site of α2/3-containing GABA receptors; experiment: In vivo [3H]Ro 15-1788 binding, spinal cord; details: male, Swiss-Webster, mouse, in vivo, 1 mg/kg
Procedure: as §1, §2

α5β3γ2 = target: T2, α5β3γ2 (Homo sapiens, UniProt P18507+P31644); experiment: Radioligand binding, membranes of stably transfected cells
T2 construct: expressed in transfected cells
T2 sequence (P31644 32-462): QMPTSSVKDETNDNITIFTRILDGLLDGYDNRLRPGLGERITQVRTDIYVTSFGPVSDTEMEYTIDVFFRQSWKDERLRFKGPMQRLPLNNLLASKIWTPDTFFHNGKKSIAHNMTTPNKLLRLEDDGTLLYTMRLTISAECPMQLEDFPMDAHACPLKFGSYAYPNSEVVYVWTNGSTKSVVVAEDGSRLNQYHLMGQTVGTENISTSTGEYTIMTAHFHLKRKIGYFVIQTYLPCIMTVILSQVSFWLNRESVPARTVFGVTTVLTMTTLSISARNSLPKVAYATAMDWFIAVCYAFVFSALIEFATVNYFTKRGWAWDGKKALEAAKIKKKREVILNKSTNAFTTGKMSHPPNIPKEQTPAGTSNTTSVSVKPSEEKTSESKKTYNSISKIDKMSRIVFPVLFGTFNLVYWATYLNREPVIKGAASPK
T2 sequence (P28472 26-473 partner): as the sequence (P28472 26-473 partner) above
T2 sequence (P18507 40-467 isoform P18507-1 limits assumed): as the sequence (P18507 40-467 isoform P18507-1 limits assumed) above

α5-containing receptors = experiment: Occupancy of α5-containing receptors calculated by Clarke's equation; assay type: in vivo, mouse
Procedure: If it is assumed that the percentage inhibition of in vivo [^3H]Ro 15-1788 binding is a measure of receptor occupancy then the concentration at the receptor site in brain can be calculated according to Clarke's equation (occupancy=[drug]/[drug]+Ki). Substituting the occupancy determined at α1 and α2/3-containing receptors, the concentration of FG 8094 available at BZ binding sites in […] is 7.8 nM and 13.2 nM respectively. Occupancy at α5-containing receptors cannot be measured directly because of the low abundance of the receptor, but it can be calculated using the concentration of drug and binding affinity using Clarke's equation. This predicts 95-97 % occupancy of α5-containing receptors 30 min after administration of FG 8094 (1 mg/kg).

[4] = target: α5 subtype containing GABA-A receptors (Rattus norvegicus, UniProt P18508+P19969); experiment: In vivo [3H]FG 8094 binding after pellet implantation; details: SC pellet, after first four swim trials, [3H]FG 8094 IV
α5 subtype containing GABA-A receptors, sequence (P19969 32-464 limits assumed): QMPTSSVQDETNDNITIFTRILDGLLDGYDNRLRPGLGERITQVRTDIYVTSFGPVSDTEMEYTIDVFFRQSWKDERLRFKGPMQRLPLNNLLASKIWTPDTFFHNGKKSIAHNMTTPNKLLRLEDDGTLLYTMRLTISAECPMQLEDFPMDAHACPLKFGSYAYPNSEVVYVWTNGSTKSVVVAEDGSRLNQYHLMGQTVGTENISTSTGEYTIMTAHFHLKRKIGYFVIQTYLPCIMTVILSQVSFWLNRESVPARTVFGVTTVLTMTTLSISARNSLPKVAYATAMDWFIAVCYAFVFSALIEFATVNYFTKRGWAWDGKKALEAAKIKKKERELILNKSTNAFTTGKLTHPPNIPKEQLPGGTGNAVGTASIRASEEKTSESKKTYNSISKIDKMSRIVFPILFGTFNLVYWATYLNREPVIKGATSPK
α5 subtype containing GABA-A receptors, sequence (P18508 39-466): as the sequence (P18507 40-467 isoform P18507-1 limits assumed) above
α5 subtype containing GABA-A receptors, sequence (P63079 26-473 partner): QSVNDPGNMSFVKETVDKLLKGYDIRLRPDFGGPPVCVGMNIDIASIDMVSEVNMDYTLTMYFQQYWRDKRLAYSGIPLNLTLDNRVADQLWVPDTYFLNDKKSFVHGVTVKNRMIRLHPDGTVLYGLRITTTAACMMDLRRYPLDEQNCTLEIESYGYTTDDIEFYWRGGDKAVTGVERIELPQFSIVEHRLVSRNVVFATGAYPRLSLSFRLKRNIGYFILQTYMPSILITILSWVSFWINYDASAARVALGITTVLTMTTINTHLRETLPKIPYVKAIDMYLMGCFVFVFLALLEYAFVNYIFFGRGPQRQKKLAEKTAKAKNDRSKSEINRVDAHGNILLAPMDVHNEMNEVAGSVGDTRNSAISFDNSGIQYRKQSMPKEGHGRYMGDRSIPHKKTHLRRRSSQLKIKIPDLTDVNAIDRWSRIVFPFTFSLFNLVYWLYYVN
Procedure: In a second experiment the vehicle or FG pellets were implanted into rats exactly as described above. However, after the first four swim trials the animals were injected (IV) with [^3H]FG 8094 and three mins later the brains of the animals were rapidly removed.

α3β3γ2 = target: T3, α3β3γ2 (Homo sapiens, UniProt P18507+P34903); experiment: Radioligand binding, membranes of stably transfected cells
T3 construct: expressed in transfected cells
T3 sequence (P34903 29-492): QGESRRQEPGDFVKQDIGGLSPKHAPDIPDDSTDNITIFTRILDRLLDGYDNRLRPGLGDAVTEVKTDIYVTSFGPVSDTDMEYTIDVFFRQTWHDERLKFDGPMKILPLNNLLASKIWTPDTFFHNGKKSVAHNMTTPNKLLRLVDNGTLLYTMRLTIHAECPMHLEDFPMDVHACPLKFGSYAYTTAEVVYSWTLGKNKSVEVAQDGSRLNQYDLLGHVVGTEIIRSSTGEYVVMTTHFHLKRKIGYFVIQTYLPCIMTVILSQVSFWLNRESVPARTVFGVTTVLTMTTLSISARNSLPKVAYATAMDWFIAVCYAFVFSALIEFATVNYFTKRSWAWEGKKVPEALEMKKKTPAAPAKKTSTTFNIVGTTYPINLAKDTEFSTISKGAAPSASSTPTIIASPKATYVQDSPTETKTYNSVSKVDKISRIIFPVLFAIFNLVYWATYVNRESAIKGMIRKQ
T3 sequence (P28472 26-473 partner): as the sequence (P28472 26-473 partner) above
T3 sequence (P18507 40-467 isoform P18507-1 limits assumed): as the sequence (P18507 40-467 isoform P18507-1 limits assumed) above

rats = experiment: Watermaze experiment with SC pellet of FG 8094

## CCOC(=O)c1ncn2c1[C@@H]1CCCN1C(=O)c1cc(OC)ccc1-2 [FG 8094, 9H-imidazo[1,5-a]pyrrolo[2,1-C][1,4]benzodiazepine-1-carboxylic acid, 11, 12, 13, 13a-tetrahydro-7-methoxy-9-oxo-, ethyl ester, (S)-(9CI)]
[1]
  occupancy of non-α5 subtype containing GABA-A receptors: did not significantly occupy
[2]
  blood levels: greater than 100 ng/ml
  duration of blood levels greater than 100 ng/ml: more than 6 hours
α6β3γ2
  Ki: 83.2 ± 4.5 nM
Spinal cord (α2/3); 1.0 mg/kg
  occupancy of α2/3 receptors: less than 35%
Spinal cord (α2/3); 1 mg/kg ip
  percentage inhibition of in vivo [3H]Ro 15-1788 binding, spinal cord: 33.8 ± 7.4
Spinal cord (α2/3); 10 mg/kg ip
  percentage inhibition of in vivo [3H]Ro 15-1788 binding, spinal cord: 74.2 ± 3.8
[3]
  concentration at 30 min: 13.2 nM
α5β3γ2
  Ki: 0.45 ± 0.15 nM
α5β3γ2; over α1
  selectivity for α5-containing receptors over α1: 107 fold
α5β3γ2; over α2
  selectivity for α5-containing receptors over α2: 60 fold
α5β3γ2; over α3
  selectivity for α5-containing receptors over α3: 53 fold
α5β3γ2; over α6
  selectivity for α5-containing receptors over α6: 184 fold
α5-containing receptors; 1.0 mg/kg
  occupancy of α5-containing receptors: virtually all
α5-containing receptors; 30 min after 1 mg/kg, Clarke's equation
  predicted occupancy of α5-containing receptors: 95-97%
[4]
  occupancy of α5 subtype containing GABA-A receptors in the brain: approximately 85%
α3β3γ2
  Ki: 24.5 ± 2 nM
rats; SC pellet
  convulsions or sedation: did not cause convulsions or sedation
rats; pellet implanted SC 2 hrs before, training on one day
  watermaze performance: improved performance
